Test [1] concerns the target human recombinant serotonin (5-Hydroxytryptamine) 5-HT7 receptor (Homo sapiens, UniProt P34969). As to the kind of experiment: Serotonin 5-HT7 radioligand binding ([3H]LSD). As to conditions: compound at 0.1 μM; read-out: Percentage inhibition of ligand binding, Serotonin (0.1 μM) 5-HT7. As for the experimental part: To evaluate in radioligand binding assays the activity of compounds of the invention, human recombinant serotonin (5-Hydroxytryptamine) 5-HT7 receptor expressed in Chinese hamster ovary (CHO) cells (Roth, B. et al, J. Pharmacol. Exp. Ther. 268:1403, 1994; Shen, Y. et al, J. Biol. Chem. 268:18200, 1993) in a modified Tris-HCl buffer (50 mM Tris-HCl, pH 7.4, 10 mM MgCl2, 0.5 mM EDTA) was used. Compounds of invention were incubated with 5.5 nM [^3H] Lysergic acid diethylamide (LSD) for 2 h at 25° C. Non-specific binding was estimated in the presence of 10 μM Serotonin (5-HT). Receptor proteins were filtered and washed, the filters were then counted to determine [^3H]LSD specifically bound. Compounds were screened at 1 μM or lower, using 1% DMSO as vehicle. Biochemical assay results are presented as the percent inhibition of specific binding in Table 4.

The target of test [2] is T1, human recombinant serotonin (5-Hydroxytryptamine) 5-HT2A receptor (Homo sapiens, UniProt P28223).
T1 construct: expressed in transfected cells; host or cells: Chinese hamster ovary (CHO) K1 cells
T1 sequence (P28223 whole entry): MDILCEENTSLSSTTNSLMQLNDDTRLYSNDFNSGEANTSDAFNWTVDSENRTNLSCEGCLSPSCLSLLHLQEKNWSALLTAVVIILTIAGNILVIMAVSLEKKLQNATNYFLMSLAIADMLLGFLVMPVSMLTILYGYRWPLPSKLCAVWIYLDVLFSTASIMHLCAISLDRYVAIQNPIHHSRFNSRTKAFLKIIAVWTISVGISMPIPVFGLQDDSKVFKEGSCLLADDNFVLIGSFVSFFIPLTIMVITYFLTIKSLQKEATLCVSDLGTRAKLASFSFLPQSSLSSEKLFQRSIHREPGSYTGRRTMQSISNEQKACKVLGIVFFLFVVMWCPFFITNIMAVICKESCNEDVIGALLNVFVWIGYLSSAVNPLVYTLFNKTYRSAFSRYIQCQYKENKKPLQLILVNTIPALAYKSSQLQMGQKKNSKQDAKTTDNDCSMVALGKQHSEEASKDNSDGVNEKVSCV
Put plainly: Serotonin 5-HT2A radioligand binding ([3H]Ketanserin). To be noted: compound at 0.1 μM; read-out: Percentage inhibition of ligand binding, Serotonin (0.1 μM) 5-HT2A. On the procedure:
To evaluate in radioligand binding assays the activity of compounds of the invention, human recombinant serotonin (5-Hydroxytryptamine) 5-HT2A receptor expressed in Chinese hamster ovary (CHO) K1 cells (Bonhaus, D. et al, Br. J. Pharmacol. 115:622, 1995; Saucier, C. et al, J. Neurochem. 68:1998, 1997) in a 50 mM Tris-HCl buffer, pH 7.4, was used. Compounds of the invention were incubated with 0.5 nM [^3H]Ketanserin for 60 min at 25° C. Non-specific binding was estimated in the presence of 1 μM Mianserin. Receptor proteins were filtered and washed, the filters were then counted to determine [^3H]Ketanserin specifically bound. Compounds were screened at 1 μM or lower, using 1% DMSO as vehicle. Biochemical assay results are presented as the percent inhibition of specific binding in Table 4.

Test [3] has as its target T2, human recombinant serotonin (5-Hydroxytryptamine) 5-HT6 receptor (Homo sapiens, UniProt P50406).
T2 construct: expressed in transfected cells; host or cells: human HeLa cells
Put plainly: Serotonin 5-HT6 radioligand binding ([3H]LSD). As to conditions: compound at 0.1 μM; read-out: Percentage inhibition of ligand binding, Serotonin (0.1 μM) 5-HT6. On the procedure:
To evaluate in radioligand binding assays the activity of compounds of the invention, human recombinant serotonin (5-Hydroxytryptamine) 5-HT6 receptor expressed in human HeLa cells (Monsma, F. Jr. et al, Mol. Pharmacol. 43:320, 1993) in a modified Tris-HCl buffer (50 mM Tris-HCl, pH 7.4, 150 mM NaCl, 2 mM Ascorbic Acid, 0.001% BSA) was used. Compounds of the invention were incubated with 1.5 nM [3H]Lysergic acid diethylamide (LSD) for 120 min at 37° C. Non-specific binding was estimated in the presence of 5 μM Serotonin (5-HT). Receptor proteins were filtered and washed, the filters were then counted to determine [3H]LSD specifically bound. Compounds were screened at 1 μM or lower, using 1% DMSO as vehicle. Biochemical assay results are presented as the percent inhibition of specific binding in Table 4.

For test [4], the target named is human recombinant histamine H1 receptor (Homo sapiens, UniProt P35367). Put plainly: Histamine H1 radioligand binding ([3H]Pyrilamine). As to conditions: compound at 0.1 μM; 1.2 nM [3H]Pyrilamine; read-out: Binding data (Percentage inhibition) Histamine H1 (0.1 μM). As for the experimental part: To evaluate in radioligand binding assays the activity of compounds of the invention, human recombinant histamine H1 receptor expressed in Chinese hamster ovary (CHO) cells (De Backer, M. et al, Biochem. Biophys. Res. Comm. 197(3):1601, 1993) in a modified Tris-HCl buffer (50 mM Tris-HCl, pH 7.4, 2 mM MgCl2, 100 mM NaCl, 250 mM Sucrose) was used. Compounds of the invention were incubated with 1.2 nM [^3H]Pyrilamine for 180 min at 25° C. Non-specific binding was estimated in the presence of 1 μM Pyrilamine. Receptor proteins were filtered and washed, the filters were then counted to determine [^3H]Pyrilamine specifically bound. Compounds were screened at 1 μM or lower, using 1% DMSO as vehicle. Biochemical assay results are presented as the percent inhibition of specific binding in Table 2.
Chain of human recombinant histamine H1 receptor (P35367 whole entry): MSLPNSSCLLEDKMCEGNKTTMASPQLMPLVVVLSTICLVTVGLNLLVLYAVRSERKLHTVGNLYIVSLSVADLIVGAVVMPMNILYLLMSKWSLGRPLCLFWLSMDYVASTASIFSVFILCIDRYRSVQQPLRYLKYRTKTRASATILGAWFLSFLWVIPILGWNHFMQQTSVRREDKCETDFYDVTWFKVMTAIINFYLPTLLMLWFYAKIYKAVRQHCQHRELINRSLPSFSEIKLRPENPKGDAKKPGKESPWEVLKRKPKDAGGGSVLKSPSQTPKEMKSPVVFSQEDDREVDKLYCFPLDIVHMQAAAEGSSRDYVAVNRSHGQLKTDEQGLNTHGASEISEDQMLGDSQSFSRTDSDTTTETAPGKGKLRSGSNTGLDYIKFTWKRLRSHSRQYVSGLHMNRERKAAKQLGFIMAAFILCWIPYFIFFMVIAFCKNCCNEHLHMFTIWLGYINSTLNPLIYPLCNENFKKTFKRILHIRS

The target in test [5] is human recombinant dopamine D2L receptor (Homo sapiens, UniProt P14416). Put plainly: Dopamine D2L radioligand binding ([3H]Spiperone). As to conditions: compound at 0.2 μM; read-out: Percentage inhibition of ligand binding, Dopamine (0.2 μM) D2L. As for the experimental part: To evaluate in radioligand binding assays the activity of compounds of the invention, human recombinant dopamine D2L receptor expressed in Chinese hamster ovary (CHO) cells (Grandy, D. et al, Proc. Natl. Acad. Sci. USA. 86:9762, 1989; Hayes, G. et al, Mol. Endocrinol. 6:920, 1992) in a modified Tris-HCl buffer (50 mM Tris-HCl, pH 7.4, 1.4 mM Ascorbic Acid, 0.001% BSA, 150 mM NaCl) was used. Compounds of the invention were incubated with 0.16 nM [^3H]Spiperone for 120 min at 25° C. Non-specific binding was estimated in the presence of 10 μM Haloperidol. Receptor proteins were filtered and washed, the filters were then counted to determine [^3H]Spiperone specifically bound. Compounds were screened at 1 μM or lower, using 1% DMSO as vehicle. Biochemical assay results are presented as the percent inhibition of specific binding in Table 3.
Chain of human recombinant dopamine D2L receptor (P14416 whole entry): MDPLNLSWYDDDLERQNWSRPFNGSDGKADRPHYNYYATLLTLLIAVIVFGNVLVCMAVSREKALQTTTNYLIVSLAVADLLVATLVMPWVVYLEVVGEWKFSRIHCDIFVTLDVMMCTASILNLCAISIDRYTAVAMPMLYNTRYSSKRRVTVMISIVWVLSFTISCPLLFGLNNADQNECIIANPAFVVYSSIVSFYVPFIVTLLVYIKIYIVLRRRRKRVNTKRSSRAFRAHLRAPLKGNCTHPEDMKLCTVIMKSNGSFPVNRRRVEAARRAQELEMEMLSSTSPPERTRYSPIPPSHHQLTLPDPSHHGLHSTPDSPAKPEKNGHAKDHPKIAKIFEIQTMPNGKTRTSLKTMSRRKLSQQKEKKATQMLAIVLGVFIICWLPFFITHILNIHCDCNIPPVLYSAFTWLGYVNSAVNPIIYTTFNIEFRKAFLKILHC

T2 sequence (P50406 whole entry): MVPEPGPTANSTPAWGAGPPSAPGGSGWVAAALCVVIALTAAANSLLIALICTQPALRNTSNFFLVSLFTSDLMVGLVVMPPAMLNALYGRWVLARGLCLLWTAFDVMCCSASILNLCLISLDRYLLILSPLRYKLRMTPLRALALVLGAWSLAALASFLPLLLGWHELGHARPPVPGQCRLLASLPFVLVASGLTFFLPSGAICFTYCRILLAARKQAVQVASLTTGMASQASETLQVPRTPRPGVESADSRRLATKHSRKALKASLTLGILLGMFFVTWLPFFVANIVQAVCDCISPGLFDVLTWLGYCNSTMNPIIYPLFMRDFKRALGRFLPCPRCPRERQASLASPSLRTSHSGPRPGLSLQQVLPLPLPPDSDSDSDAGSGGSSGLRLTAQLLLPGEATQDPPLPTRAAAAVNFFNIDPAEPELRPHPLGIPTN
Chain of human recombinant serotonin (5-Hydroxytryptamine) 5-HT7 receptor (P34969 whole entry): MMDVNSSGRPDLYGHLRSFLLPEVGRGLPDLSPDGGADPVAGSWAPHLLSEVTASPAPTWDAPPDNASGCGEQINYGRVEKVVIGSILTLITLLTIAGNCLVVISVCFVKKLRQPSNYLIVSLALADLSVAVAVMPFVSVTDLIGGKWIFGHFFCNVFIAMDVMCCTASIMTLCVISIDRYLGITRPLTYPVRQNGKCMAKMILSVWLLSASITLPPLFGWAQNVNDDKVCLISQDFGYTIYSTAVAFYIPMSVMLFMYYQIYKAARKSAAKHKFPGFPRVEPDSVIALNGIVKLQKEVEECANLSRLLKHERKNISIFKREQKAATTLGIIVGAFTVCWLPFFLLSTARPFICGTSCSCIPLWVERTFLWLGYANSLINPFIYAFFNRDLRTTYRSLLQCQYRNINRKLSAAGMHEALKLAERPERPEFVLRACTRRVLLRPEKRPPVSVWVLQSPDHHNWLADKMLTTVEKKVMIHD

Turning to `C#CCC1(C)CN(C)Cc2c1n(C)c1ccc(C)cc21` (stereo not shown) [Compound 47, 2,4,5,8-tetramethyl-4-(prop-2-ynyl)-2,3,4,5-tetrahydro-1H-pyrido[4,3-b]indole], the inhibition at 0.1 µM in test [1] worked out at 13%; in test [2], 32%; in test [3], 14%; in test [4], 49%. Further, the inhibition at 0.2 µM in test [5] was 5%.
The like results for `Cc1ccc2c(c1)c1c(n2C)C(C)(CCc2nc(-c3ccccc3)cs2)CN(C)C1` (stereo not shown) [Compound 48] were, in that order, 17%, 39%, 22%, 89% and -5%.

As a reminder, the inhibition is the change of the read-out against control, counted positive when it falls.

The values are drawn from patent publication US20130172320A1, “PYRIDO [4,3-B] INDOLE AND PYRIDO [3,4-B] INDOLE DERIVATIVES AND METHODS OF USE” (priority 2010, published 2013).
